Test results: patent US20040214891A1, “Method for inhibiting pathogenic bacteria and fungi growth and microbicidal composition” (priority 2003, published 2004)

Experiments:
Propionibacterium acnes = assay: microbicidal activity of TauBr solution, incubation with bacteria then colony count; type: cell-based; conditions: Cutibacterium acnes, 0.5 h, 30 minutes incubation at room temperature, range tested 1-1000 μM, read-out: inhibitory concentration (MIC)
Protocol: (§1) For research purposes, two bacterial strains commonly found on the human skin were chosen: Propionibacterium acnes (causing acne) and Staphylococcus epidermides (being a part of physiological flora of the skin). Selected microorganisms were lyophilized and kept at room temperature. To prepare strain cultures for immune research the lyophilisate was dissolved in 0.5 ml of 0.9% NaCl solution. The mixture was stirred and seeded on a growth medium. Incubation was conducted in anaerobic conditions at 37° C. for 48-72 hrs. A suspension of bacteria at a concentration of 5×10^9 CFU/ml was then prepared.
(§2) In order to assess the microbicidal activity of the TauBr solution, the Proponibacterium acnes and the Staphylococcus epidermides bacteria were incubated in closed tubes with TauBr solution. The range of concentrations tested was 1-1000 μM. The incubation was conducted at room temperature for 30 minutes. When this process was completed, bacteria were seeded onto a growth medium. After an appropriate period of time the number of developed colonies were counted. Next, estimation of the susceptibility of the Proponibacterium acnes and Staphylococcus epidermides bacteria to the agent tested [TauBr] was determined.

[1] = system: Staphylococcus epidermidis; assay: as above; type: cell-based; conditions: 0.5 h, 30 minutes incubation at room temperature, range tested 1-1000 μM, read-out: inhibitory concentration (MIC)
Protocol: as §1, §2

bacteria on the skin [2] = assay: imprinting method on skin of volunteers, gel, cream and powder preparations; type: in vivo, human; conditions: above 5 mM taurine bromamine; for example Staphylococcus epidermides
Protocol: Further studies of the antibacterial activity of taurine bromamine were conducted using a gel, a cream and a powder. In these tests, applications with a semisolid consistency and plastic features were made, called hereinafter, pharmaceutical or cosmetic preparations or compositions, particularly a taurine bromamine solution in an ethyl-cellulose gel with pH 5-pH 7, a cetomacrogol cream with pH 5-pH 7 and a powder suspension in a taurine bromamine solution.
The powder suspension in taurine bromamine solution was prepared on a base of liquid powder changing the proportions of the components by weight. The suspension consisted of, by weight: 14.0-60.0% of 10 mM Taurine bromamine solution, 10.0-24.0% of talc, 14.0-40.0% of glycerol, 5.0-30.0% of distilled water and 0.5-2.0% of menthol. The constituents of the suspension were stirred thoroughly until an homogenous dispersion of the solid phase was obtained. […]
The preparations were left on the skin area for 30 minutes and then the plates were pressed down so that the site exposed to the activity of the various substances was imprinted centrally on the plate. […] Wherever it was possible, all cultivated colonies of relatively aerobic bacteria and anaerobic bacteria were counted, giving their occurrence per 1 cm^2 of the skin. […]

bacteria tested = assay: bactericidal activity of TauBr compared with TauCl at pH above 7; type: cell-based
bacteria on the skin [3] = assay: imprinting method with Rodac plates on dorsal skin of volunteers, solutions on gauze pads; type: in vivo, human; conditions: 30 minutes
Excerpt: In order to conduct further tests to ascertain the antibacterial activity of the formulation containing taurine bromamine and prepared by the method described above, the imprinting method was chosen with use of Rodac plates with an area of 25 cm^2. For the purposes of study a Scheadler Agar Base medium produced by the firm Dico, catalogue number 212189, was used with addition of 5% ram blood. The medium was poured steadily onto the Rodac plates in aseptic conditions until a convex meniscus appeared. Before being applied, the medium was kept in enclosed conditions within a fridge at a temperature of ca. +4° C. and was used in a time not exceeding 7 days from the date of its preparation.
Tests for the antibacterial activity of taurine bromamine were conducted by performing 5 imprints of the dorsal skin on time at each of the patients examined. The skin area, on which the tests were to be performed, was determined in advance and marked with the numbers 1-5. […]
At the site marked 1—a gauze pad saturated with 0.9% inj. solution of NaCl (Polfa Lublin), which was a control substance without antibacterial activity was applied to the skin. […] Wherever possible, all the cultivated colonies of relatively aerobic and anaerobic bacteria were counted, to provide a figure for the concentration per cm^2 of the skin. […]

SMILES | MIC (Propionibacterium acnes) [µM] | MIC [1] [µM] | effect on bacterial flora of normal skin (bacteria on the skin [2]) | selective bactericidal properties (variable susceptibility of strains) (bacteria tested) | bactericidal activity relative to TauCl (bacteria tested; especially at pH above 7) | bacteria destroyed (bacteria tested; pH above 7) [%] | bacterial concentration on skin after treatment (bacteria on the skin [3]; 5 mM solution in buffer pH 7, decrease from uncountable level of ca 10^4 CFU/cm^2) | number of bacteria on the skin area (bacteria on the skin [3]; 4-7 mM solution in buffer pH 5-pH 7, all patients) | bactericidal properties (bacteria tested; pH above 7, subcytotoxic concentrations for mammalian cells)
O=S(=O)(O)CCNBr [TauBr, N-bromo taurine] | < 32 | > 125 | all the bacterial flora is destroyed | Variable susceptibility of the strains | much stronger than TauCl | 99 | 10^1-10^2 CFU/cm^2 | considerable diminution | –
O=S(=O)(O)CCNCl [TauCl, N-chloro taurine, reference compound] | – | – | – | no such selective bactericidal properties | – | – | – | – | no bactericidal properties
